The values that follow come from patent publication US10240210B2, “Methods of stratifying patients for treatment with retinoic acid receptor-alpha agonists” (Syros Pharmaceuticals, Inc., priority 2016, dated 2019).

By EC50 is commonly meant the midpoint of the concentration-response curve.

One assay concerns MV4-11. In words: AML cell line anti-proliferation (cell viability, ATPlite or CyQuant). In kind it is cell-based, human. On the technique in general: Cellular ATP, detected with luciferase, serves as a proxy for viable cell number.
A further assay concerns Kasumi-1. The description is as above. Type of assay: cell-based, human.
Another assay concerns HEL. Described as above. In kind it is cell-based. The settings on record: Homo sapiens, 240 h, five or ten days incubation, read-out: Tamibarotene anti-proliferative potency (EC50).
Another assay deals with THP-1. The assay is described as above. In kind it is cell-based. The settings on record: Homo sapiens, 240 h; THP-1 AML cell line; five or ten days incubation; read-out: Tamibarotene anti-proliferative potency (EC50).
The subject of the next assay is EOL-1. The description is as above. In kind it is cell-based. The settings on record: Homo sapiens, EOL1, 240 h; EOL-1 AML cell line; five or ten days incubation; read-out: Tamibarotene anti-proliferative potency (EC50).
For a further assay, the system named is OCI-M1. Described as above. Type of assay: cell-based, human.
Another assay relates to Sig-M5. Described as above. Type of assay: cell-based, human.
In another assay the test system is Nomo-1. Described as above. In kind it is cell-based, human.
A further assay concerns PL21. The description is as above. Type of assay: cell-based. The conditions noted are these: Homo sapiens, PL-21, 240 h, five or ten days incubation, read-out: Tamibarotene anti-proliferative potency (EC50).
Another assay concerns KG-1a. The assay is described as above. In kind it is cell-based, human.
Another assay relates to OCI-AML2. The description is as above. Type of assay: cell-based. The settings on record: Homo sapiens, 240 h, five or ten days incubation, read-out: Tamibarotene anti-proliferative potency (EC50).
A further assay concerns AM7577 xenografts. Nature of the assay: AML patient sample-derived xenograft model. The conditions noted are these: 6 mg per kg orally daily. Type of assay: in vivo, BALB/c nude immunocompromised mice. On the procedure: (§1) Different AML patient sample (AM8096, AM5512, AM7577 and AM7440)-derived xenograft models in BALB/c nude immunocompromised mice are prepared by Crown Biosciences (Beijing, China) essentially as follows.
(§2) Approximately 2×10^6 cells from each patient sample are suspended in 100 μL PBS and injected into separate mice (n=3 for each different patient sample and for the control) by IV tail injection. For AM5512, AM7577 and AM7440 xenografts, tumor burden is considered high enough to start treatment when the concentration of human CD45^+ cells reaches ˜1-5% in the animal's peripheral blood. Human CD45^+ cells are detected in mouse blood (obtained via eye bleeds) using a fluorescence activated cell sorter and FITC anti-human CD45 (Biolegend, Cat#304037). For AM8096 xenografts, treatment is begun 40 days after injection of cells.
(§3) Tamibarotene is administered orally in pH 8 adjusted PBS, 1% DMSO on a daily schedule at a final dose of 6 mg per kg body weight in a 10 ml/kg volume. Mice in the vehicle arm are given the same schedule, volume, and formulation, but lacking tamibarotene. Human CD45^+ cell levels in peripheral blood from the treated animals and control animals are measured once a week.
(In xenograft studies the graft and the host belong to different species.)

A further assay concerns AM5512 xenografts. In words: AML patient sample-derived xenograft model. The settings on record: 6 mg per kg orally daily, after 35 days of treatment. Type of assay: in vivo, BALB/c nude immunocompromised mice. How it is done:
as §1, §2, §3

For the next assay, the system named is AM7440 xenografts. Nature of the assay: AML patient sample-derived xenograft model. Type of assay: in vivo, BALB/c nude immunocompromised mice. The conditions noted are these: 6 mg per kg orally daily. On the procedure:
as §1, §2, §3

Another assay relates to AM8096 xenografts. Nature of the assay: AML patient sample-derived xenograft model. In kind it is in vivo, BALB/c nude immunocompromised mice. The settings on record: 6 mg per kg orally daily, after 35 days of treatment. How it is done:
as §1, §2, §3

The test system of a further assay is HL60. Nature of the assay: AML cell line anti-proliferation (cell viability, ATPlite or CyQuant). The conditions noted are these: Homo sapiens, HL-60, 240 h; HL60 (APL cell line); five or ten days incubation; read-out: Tamibarotene anti-proliferative potency (EC50). In kind it is cell-based.
For the next assay, the system named is OCI-AML3. Described as above. Type of assay: cell-based, human.

In the case of `CC1(C)CCC(C)(C)c2cc(NC(=O)c3ccc(C(=O)O)cc3)ccc21` [tamibarotene], the EC50 is 0.17 nM in the assay with MV4-11 (Homo sapiens, 240 h, MV4-11 AML cell line, five or ten days incubation, read-out: Tamibarotene anti-proliferative potency (EC50)); above 50000 nM in the assay on Kasumi-1 (Homo sapiens, 240 h, Kasumi-1 AML cell line, five or ten days incubation, read-out: Tamibarotene anti-proliferative potency (EC50)); above 50000 nM in the assay with HEL; 0.95 nM in the assay with THP-1; 0.89 nM in the assay on EOL-1; above 50000 nM in the assay on OCI-M1 (Homo sapiens, 240 h, OCI-M1 AML cell line, five or ten days incubation, read-out: Tamibarotene anti-proliferative potency (EC50)). The EC50 in the assay on Sig-M5 (Homo sapiens, 240 h, Sig-M5 AML cell line, five or ten days incubation, read-out: Tamibarotene anti-proliferative potency (EC50)) was 0.46 nM; in the assay with Nomo-1 (Homo sapiens, 240 h, Nomo-1 AML cell line, five or ten days incubation, read-out: Tamibarotene anti-proliferative potency (EC50)), 0.48 nM; in the assay on PL21 it was 1.41 nM; in the assay with KG-1a (Homo sapiens, 240 h, KG-1a AML cell line, five or ten days incubation, read-out: Tamibarotene anti-proliferative potency (EC50)) it was above 50000 nM; in the assay with OCI-AML2, 0.34 nM; in the assay with HL60 it was 1.64 nM. Besides, in the assay with OCI-AML3 (Homo sapiens, OCI-AML-3, 240 h, OCI-AML3 AML cell line, five or ten days incubation, read-out: Tamibarotene anti-proliferative potency (EC50)), the EC50 came out at 0.34 nM. The “sensitivity of cell line to tamibarotene” value is listed as “sensitive” in the assay with MV4-11 (MV-4-11); “insensitive” in the assay on Kasumi-1 (Kasumi-1); “insensitive” with OCI-M1 (OCI-M1); “sensitive” in the assay on Sig-M5 (Sig-M5); “sensitive” in the assay on Nomo-1 (NOMO-1); “insensitive” in the assay on KG-1a (KG1a). In addition, the “sensitivity of cell line to tamibarotene” value in the assay with OCI-AML3 (OCI-AML3) is “sensitive”. The “tumor volume between tamibarotene treated and vehicle treated animals, overall or in blood, bone marrow or spleen” value in the assay on AM7577 xenografts and with AM7440 xenografts was “no significant reduction” throughout. Also, the “total % of CD45+ cells and % of CD45+ cells in blood, bone marrow and spleen, compared to the vehicle control” value with AM5512 xenografts and in the assay on AM8096 xenografts was “significant reduction” throughout.
